Results: ChEMBL document CHEMBL1201862, “PubChem BioAssay data set” (2004)
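Tested at 5 concentrations; 48 h exposure; 96-well plates; endpoints linearly interpolated, else capped at highest concentration. GI50 marks 50% less growth.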 Active and inactive are the calls of the source. Cut-off read from the data, not from the text of the source: active = GI50 up to about 1.1 µM and inactive = higher.

How the values were obtained:
Test in all cases: DTP human tumour cell line panel, 48 h
[1] = tested on: A498
[2] = tested on: EKVX
[3] = tested on: HCT-116
[4] = tested on: M14
[5] = tested on: MCF7
[6] = tested on: MDA-MB-435
[7] = tested on: MDA-N
[8] = tested on: MOLT-4
[9] = tested on: Malme-3M
[10] = tested on: NCI-H460
[11] = tested on: NCI-H522
[12] = tested on: OVCAR-5
[13] = tested on: RPMI-8226
[14] = tested on: SF-539
[15] = tested on: SK-MEL-28
[16] = tested on: SK-OV-3
[17] = tested on: SNB-19
[18] = tested on: U-251
[19] = tested on: A549
[20] = tested on: CAKI-1

Measured: GI50

CCOC(=O)C1=C(c2ccccc2)C12N(Cc1ccccc1)C(=O)C2(c1ccccc1)c1ccccc1 (stereo not drawn)
inactive: [1] 36.8 µM | [2] 38.8 µM | [3] 36.4 µM | [4] 43.4 µM | [5] 38.6 µM | [6] 34.8 µM | [7] 25.5 µM | [8] 38.8 µM | [9] 93.8 µM | [10] 28.2 µM | [11] 32.8 µM | [12] 59.8 µM | [13] 3.16 µM | [14] 45.1 µM | [15] 74.3 µM | [16] 47.9 µM | [17] 96.8 µM | [18] 37.8 µM

COC(=O)[C@@H](N1C(=O)c2ccccc2C1=O)C1(C)CC(Cl)=NO1 (stereo partly drawn)
inactive: [1] 34.7 µM | [19] 86.1 µM | [20] 12.7 µM | [2] 38.8 µM | [3] 75.5 µM | [4] > 100 µM | [5] 53.6 µM | [6] > 100 µM | [7] > 100 µM | [9] > 100 µM | [10] > 100 µM | [11] 35 µM | [12] > 100 µM | [13] > 100 µM | [15] > 100 µM | [16] 33.8 µM | [17] 24.8 µM | [18] 26.2 µM

COC(=N)c1ncn(Cc2ccccc2)c1N
inactive: [1] > 100 µM | [19] > 100 µM | [20] > 100 µM | [2] > 100 µM | [3] > 100 µM | [4] > 100 µM | [5] > 100 µM | [6] > 100 µM | [7] > 100 µM | [9] > 100 µM | [10] > 100 µM | [11] > 100 µM | [12] > 100 µM | [13] > 100 µM | [14] > 100 µM | [15] > 100 µM | [16] > 100 µM | [17] > 100 µM | [18] > 100 µM

COc1cc(CCN(C)C)cc(OC)c1OC
inactive: [1] > 100 µM | [19] > 100 µM | [20] > 100 µM | [2] > 100 µM | [3] > 100 µM | [4] > 100 µM | [5] > 100 µM | [6] > 100 µM | [7] > 100 µM | [8] > 100 µM | [10] > 100 µM | [11] > 100 µM | [12] > 100 µM | [13] > 100 µM | [14] > 100 µM | [16] > 100 µM | [17] > 100 µM | [18] > 100 µM
